Laboratory results taken from US8008291B2 (Mimetica Pty Ltd, priority 2008, dated 2011).

Biological target: T1, human MC5R (hMC5R) (Homo sapiens, UniProt P33032)
T1 construct: purchased Perkin Elmer RBXMC5M400UA
Assay: Human MC5R radioligand binding assay (membranes, [125I] NDP-MSH displacement)
Conditions: hMC5R binding; tested as trifluoroacetate or hydrochloride salts, or free bases; read-out: MC5R radioligand IC50
Procedure, shortened: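 Displacement of [125I]NDP-MSH (radioiodinated in house, HPLC-purified) from hMC5R membranes by test compound measured after 1 hr incubation at 37° C.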

T1 sequence (P33032 whole entry): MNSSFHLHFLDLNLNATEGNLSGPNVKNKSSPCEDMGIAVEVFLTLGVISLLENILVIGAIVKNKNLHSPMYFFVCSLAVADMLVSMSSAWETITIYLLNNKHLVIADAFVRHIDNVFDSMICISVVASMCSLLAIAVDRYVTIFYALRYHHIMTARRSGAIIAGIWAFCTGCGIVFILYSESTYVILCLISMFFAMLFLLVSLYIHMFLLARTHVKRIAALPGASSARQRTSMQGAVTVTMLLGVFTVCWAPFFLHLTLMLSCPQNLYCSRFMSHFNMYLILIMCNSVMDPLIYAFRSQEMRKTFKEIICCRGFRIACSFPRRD

## O=C(CCc1ccc(Cl)cc1)NC[C@@H]1CCN(CC(c2ccccc2)c2ccccc2)C(=O)[C@H](CCN2CCCCC2)N1 [Compound 391, 3-(4-chlorophenyl)-N-(((3S,5S)-1-(2,2-diphenylethyl)-2-oxo-3-(2-(piperidin-1-yl)ethyl)-1,4-diazepan-5-yl)methyl)propanamide]
  IC50: < 100 nM

## NCC[C@@H]1N[C@H](CNC(=O)CCc2ccc(Cl)cc2)CCN(CC(c2ccccc2)c2ccccc2)C1=O [Compound 392, N-(((3S,5S)-3-(2-aminoethyl)-1-(2,2-diphenylethyl)-2-oxo-1,4-diazepan-5-yl)methyl)-3-(4-chlorophenyl)propanamide]
  IC50: < 10000 nM

## O=C(/C=C/c1ccc(Cl)cc1)NC[C@@H]1CCN(CC(c2ccccc2)c2ccccc2)C(=O)[C@H](CNC(=O)c2ccccn2)N1 [Compound 393, N-(((2S,7S)-7-(((E)-3-(4-chlorophenyl)acrylamido)methyl)-4-(2,2-diphenylethyl)-3-oxo-1,4-diazepan-2-yl)methyl)picolinamide]
  IC50: < 10000 nM

## CC(C)[C@@H](CN1CC[C@@H](CNC(=O)c2ccc3ccccc3c2)N[C@@H](CCN2CCCCC2)C1=O)c1ccccc1 [Compound 394, N-(((3S,5S)-1-((R)-3-methyl-2-phenylbutyl)-2-oxo-3-(2-(piperidin-1-yl)ethyl)-1,4-diazepan-5-yl)methyl)-2-naphthamide]
  IC50: < 1000 nM

## CC(C)[C@H](CN1CC[C@@H](CNC(=O)c2ccc3ccccc3c2)N[C@@H](CCN2CCCCC2)C1=O)c1ccccc1 [Compound 395, N-(((3S,5S)-1-((S)-3-methyl-2-phenylbutyl)-2-oxo-3-(2-(piperidin-1-yl)ethyl)-1,4-diazepan-5-yl)methyl)-2-naphthamide]
  IC50: < 100 nM

## CC(C)c1ccc(/C=C/C(=O)NC[C@@H]2CCN(CC(c3ccccc3)c3ccccc3)C(=O)[C@H](CCN3CCCCC3)N2)cc1 [Compound 396, (E)-N-(((3S,5S)-1-(2,2-diphenylethyl)-2-oxo-3-(2-(piperidin-1-yl)ethyl)-1,4-diazepan-5-yl)methyl)-3-(4-isopropylphenyl)acrylamide]
  IC50: < 100 nM

## CC(C)c1ccc(/C=C/C(=O)NC[C@@H]2CCN(CC(c3ccccc3)c3ccccc3)C(=O)[C@H](CCN)N2)cc1 [Compound 397, (E)-N-(((3S,5S)-3-(2-aminoethyl)-1-(2,2-diphenylethyl)-2-oxo-1,4-diazepan-5-yl)methyl)-3-(4-isopropylphenyl)acrylamide]
  IC50: < 1000 nM

## Cc1ccc(/C=C/C(=O)NC[C@@H]2CCN(CC(c3ccccc3)c3ccccc3)C(=O)[C@H](CCN3CCCCC3)N2)c(C)c1 [Compound 398, (E)-3-(2,4-dimethylphenyl)-N-(((3S,5S)-1-(2,2-diphenylethyl)-2-oxo-3-(2-(piperidin-1-yl)ethyl)-1,4-diazepan-5-yl)methyl)acrylamide]
  IC50: < 100 nM

## Cc1ccc(/C=C/C(=O)NC[C@@H]2CCN(CC(c3ccccc3)c3ccccc3)C(=O)[C@H](CCN)N2)c(C)c1 [Compound 399, (E)-N-(((3S,5S)-3-(2-aminoethyl)-1-(2,2-diphenylethyl)-2-oxo-1,4-diazepan-5-yl)methyl)-3-(2,4-dimethylphenyl)acrylamide]
  IC50: < 1000 nM

## O=C(/C=C/c1ccc(F)cc1F)NC[C@@H]1CCN(CC(c2ccccc2)c2ccccc2)C(=O)[C@H](CCN2CCCCC2)N1 [Compound 400, (E)-3-(2,4-difluorophenyl)-N-(((3S,5S)-1-(2,2-diphenylethyl)-2-oxo-3-(2-(piperidin-1-yl)ethyl)-1,4-diazepan-5-yl)methyl)acrylamide]
  IC50: < 100 nM

## NCC[C@@H]1N[C@H](CNC(=O)/C=C/c2ccc(F)cc2F)CCN(CC(c2ccccc2)c2ccccc2)C1=O [Compound 401, (E)-N-(((3S,5S)-3-(2-aminoethyl)-1-(2,2-diphenylethyl)-2-oxo-1,4-diazepan-5-yl)methyl)-3-(2,4-difluorophenyl)acrylamide]
  IC50: < 1000 nM

## O=C(/C=C/c1ccc(Cl)cc1)NC[C@@H]1CCN(CC(c2ccccc2)c2ccccc2)C(=O)[C@H](CNC(=O)C2CCCCC2)N1 [Compound 402, N-(((2S,7S)-7-(((E)-3-(4-chlorophenyl)acrylamido)methyl)-4-(2,2-diphenylethyl)-3-oxo-1,4-diazepan-2-yl)methyl)cyclohexanecarboxamide]
  IC50: < 10000 nM

## O=C(/C=C/c1ccc(Cl)cc1)NC[C@@H]1CCN(CC(c2ccccc2)c2ccccc2)C(=O)[C@H](CCN2CCOCC2)N1 [Compound 403, (E)-3-(4-chlorophenyl)-N-(((3S,5S)-1-(2,2-diphenylethyl)-3-(2-morpholinoethyl)-2-oxo-1,4-diazepan-5-yl)methyl)acrylamide]
  IC50: < 100 nM

## Cc1ccc(C)n1CC[C@@H]1N[C@H](CNC(=O)/C=C/c2ccc(Cl)cc2)CCN(CC(c2ccccc2)c2ccccc2)C1=O [Compound 404, (E)-3-(4-chlorophenyl)-N-(((3S,5S)-3-(2-(2,5-dimethyl-1 H-pyrrol-1-yl)ethyl)-1-(2,2-diphenylethyl)-2-oxo-1,4-diazepan-5-yl)methyl)acrylamide]
  IC50: < 1000 nM

## CC1CCC(C)N1CC[C@@H]1N[C@H](CNC(=O)/C=C/c2ccc(Cl)cc2)CCN(CC(c2ccccc2)c2ccccc2)C1=O (stereo partly drawn) [Compound 405, (E)-3-(4-chlorophenyl)-N-(((3S,5S)-3-(2-(2,5-dimethylpyrrolidin-1-yl)ethyl)-1-(2,2-diphenylethyl)-2-oxo-1,4-diazepan-5-yl)methyl)acrylamide]
  IC50: < 100 nM

## CC[C@H](CN1CC[C@@H](CNC(=O)/C=C/c2ccc(Cl)cc2)N[C@@H](CCN2CCCC2)C1=O)c1ccccc1 [Compound 407, (E)-3-(4-chlorophenyl)-N-(((3S,5S)-2-oxo-1-((S)-2-phenylbutyl)-3-(2-(pyrrolidin-1-yl)ethyl)-1,4-diazepan-5-yl)methyl)acrylamide]
  IC50: < 100 nM

## CC[C@H](CN1CC[C@@H](CNC(=O)/C=C/c2ccc(Cl)cc2)N[C@@H](CCNC(C)C)C1=O)c1ccccc1 [Compound 408, (E)-3-(4-chlorophenyl)-N-(((3S,5S)-3-(2-(isopropylamino)ethyl)-2-oxo-1-((S)-2-phenylbutyl)-1,4-diazepan-5-yl)methyl)acrylamide]
  IC50: < 100 nM

## CC[C@H](CN1CC[C@@H](CNC(=O)c2ccc3cc(Cl)ccc3c2)N[C@@H](CCN2CCCC2)C1=O)c1ccccc1 [Compound 409, 6-chloro-N-(((3S,5S)-2-oxo-1-((S)-2-phenylbutyl)-3-(2-(pyrrolidin-1-yl)ethyl)-1,4-diazepan-5-yl)methyl)-2-naphthamide]
  IC50: < 10 nM

## CC[C@H](CN1CC[C@@H](CNC(=O)c2ccc(Cl)c(Cl)c2)N[C@@H](CCN2CCCCC2)C1=O)c1ccccc1 [Compound 410, 3,4-dichloro-N-(((3S,5S)-2-oxo-1-((S)-2-phenylbutyl)-3-(2-(piperidin-1-yl)ethyl)-1,4-diazepan-5-yl)methyl)benzamide]
  IC50: < 100 nM

## CC[C@H](CN1CC[C@@H](CNC(=O)c2ccc(Cl)c(Cl)c2)N[C@@H](CCN2CCCC2)C1=O)c1ccccc1 [Compound 411, 3,4-dichloro-N-(((3S,5S)-2-oxo-1-((S)-2-phenylbutyl)-3-(2-(pyrrolidin-1-yl)ethyl)-1,4-diazepan-5-yl)methyl)benzamide]
  IC50: < 100 nM

## O=C(NC[C@@H]1CCN(CC(c2ccccc2)c2ccccc2)C(=O)[C@H](CCN2CCCCC2)N1)OCc1ccccc1 [Compound 412, benzyl ((3S,5S)-1-(2,2-diphenylethyl)-2-oxo-3-(2-(piperidin-1-yl)ethyl)-1,4-diazepan-5-yl)methylcarbamate]
  IC50: < 1000 nM

## O=C(/C=C/c1ccc(Br)cc1)NC[C@@H]1CCN(CC(c2ccccc2)c2ccccc2)C(=O)[C@H](CCN2CCCCC2)N1 [Compound 413, (E)-3-(4-bromophenyl)-N-(((3S,5S)-1-(2,2-diphenylethyl)-2-oxo-3-(2-(piperidin-1-yl)ethyl)-1,4-diazepan-5-yl)methyl)acrylamide]
  IC50: < 10 nM

## O=C(NC[C@@H]1CCN(CC(c2ccccc2)c2ccccc2)C(=O)[C@H](CCN2CCCCC2)N1)c1cc(-c2ccc(Cl)cc2)on1 [Compound 414, 5-(4-chlorophenyl)-N-(((3S,5S)-1-(2,2-diphenylethyl)-2-oxo-3-(2-(piperidin-1-yl)ethyl)-1,4-diazepan-5-yl)methyl)isoxazole-3-carboxamide]
  IC50: < 100 nM

## CC[C@H](CN1CC[C@@H](CNC(=O)c2ccc3cc(Cl)ccc3c2)N[C@@H](CN2CCCCC2)C1=O)c1ccccc1 [Compound 415, 6-chloro-N-(((3S,5S)-2-oxo-1-((S)-2-phenylbutyl)-3-(piperidin-1-ylmethyl)-1,4-diazepan-5-yl)methyl)-2-naphthamide]
  IC50: < 100 nM

## CC[C@H](CN1CC[C@@H](CNC(=O)c2ccc(Cl)c(Cl)c2)N[C@@H](CN2CCCCC2)C1=O)c1ccccc1 [Compound 416, 3,4-dichloro-N-(((3S,5S)-2-oxo-1-((S)-2-phenylbutyl)-3-(piperidin-1-ylmethyl)-1,4-diazepan-5-yl)methyl)benzamide]
  IC50: < 1000 nM

## CC[C@H](CN1CC[C@@H](CNC(=O)c2ccc3cc(Cl)ccc3c2)N[C@@H](CCCN2CCCCC2)C1=O)c1ccccc1 [Compound 417, 6-chloro-N-(((3S,5S)-2-oxo-1-((S)-2-phenylbutyl)-3-(3-(piperidin-1-yl)propyl)-1,4-diazepan-5-yl)methyl)-2-naphthamide]
  IC50: < 100 nM

## CC[C@H](CN1CC[C@@H](CNC(=O)c2ccc(Cl)c(Cl)c2)N[C@@H](CCCN2CCCCC2)C1=O)c1ccccc1 [Compound 418, 3,4-dichloro-N-(((3S,5S)-2-oxo-1-((S)-2-phenylbutyl)-3-(3-(piperidin-1-yl)propyl)-1,4-diazepan-5-yl)methyl)benzamide]
  IC50: < 100 nM

## CC(C)(NC(=O)/C=C/c1ccc(Cl)cc1)[C@@H]1CCN(CC(c2ccccc2)c2ccccc2)C(=O)[C@H](CCN)N1 [Compound 419, (E)-N-(2-((3S,5S)-3-(2-aminoethyl)-1-(2,2-diphenylethyl)-2-oxo-1,4-diazepan-5-yl)propan-2-yl)-3-(4-chlorophenyl)acrylamide]
  IC50: < 1000 nM
